The assay deals with RKO p21 uninduced (proliferating) colon adenocarcinoma cells. Briefly: Alamar Blue cell viability assay, RKO p21 uninduced (proliferating). The conditions noted are these: Homo sapiens, Table B3, anti-proliferative/cytotoxic activity, 72 hours, read-out: −log EC50 RKO p21 uninduced (proliferating) (converted). The assay is classed as cell-based. The method in brief:
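RKO p21 or p27 subclones grown without Ponasterone A, i.e. proliferating, exposed 24 h after seeding to semi-log compound dilutions in DMEM/10% FCS (1% DMSO controls) for 72 h at 37° C. Alamar Blue fluorescence (544/590 nm) read relative to untreated cells; EC50 from dose-response curves, given as −log EC50 (mol/l).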
(In general: Resazurin is reduced to fluorescent resorufin, in cell work by metabolically active cells.)
A word on the EC50: it is the concentration needed to bring the measured effect to its halfway point. `CCN(CC)CCN1C(=O)N2[C@H](c3cccc(O)c3)c3[nH]c4cc(F)c(Cl)cc4c3C[C@@]2(C)C1=O` (racemic) [Example 336, (3aSR,10RS)-6-Chloro-2-(2-diethylamino-ethyl)-7-fluoro-10-(3-hydroyx-phenyl)-3a-methyl-3a,4,9,10-tetrahydro-2,9,10a-triaza-cyclopenta[b]fluorene-1,3-dione]: the EC50 was 39.8 to 251 nM.

For `C=CCN(C)CCN1C(=O)N2[C@H](c3cccc(O)c3)c3[nH]c4ccc(Br)cc4c3C[C@@]2(C)C1=O` (racemic) [Example 381, (3aSR,10RS)-2-[2-(Allyl-methyl-amino)-ethyl]-6-bromo-10-(3-hydroxy-phenyl)-3a-methyl-3a,4,9,10-tetrahydro-2,9,10a-triaza-cyclopenta[b]fluorene-1,3-dione], the EC50 was 39.8 to 251 nM.

Regarding `CNCCN1C(=O)N2[C@H](c3cccc(O)c3)c3[nH]c4ccc(OC)c(F)c4c3C[C@@]2(C)C1=O` (racemic) [Example 406, (3aSR,10RS)-5-Fluoro-10-(3-hydroxy-phenyl)-6-methoxy-3a-methyl-2-(2-methylamino-ethyl)-3a,4,9,10-tetrahydro-2,9,10a-triaza-cyclopenta[b]fluorene-1,3-dione], the EC50 was 39.8 to 251 nM.

`C[C@@]12Cc3c([nH]c4cc(F)c(Cl)cc34)[C@@H](c3cccc(O)c3)N1C(=O)N(CCNCCO)C2=O` (racemic) [Example 342, (3aSR,10RS)-6-Chloro-7-fluoro-2-[2-(2-hydroxy-ethylamino)-ethyl]-10-(3-hydroxy-phenyl)-3a-methyl-3a,4,9,10-tetrahydro-2,9,10a-triaza-cyclopenta[b]fluorene-1,3-dione]: the EC50 is no more than 39.8 nM.

For `C[C@@]12Cc3c([nH]c4ccc(Br)cc34)[C@@H](c3cccc(O)c3)N1C(=O)N(CCCN1CCCC1)C2=O` (racemic) [Example 219, (3aSR,10RS)-6-Bromo-10-(3-hydroxy-phenyl)-3a-methyl-2-(3-pyrrolidin-1-yl-propyl)-3a,4,9,10-tetrahydro-2,9,10a-triaza-cyclopenta[b]fluorene-1,3-dione], the EC50 is no more than 39.8 nM.

As for `CNCCCN1C(=O)N2[C@H](c3cccc(O)c3)c3[nH]c4cc(F)c(Cl)cc4c3C[C@@]2(C)C1=O` (racemic) [Example 456, (3aSR,10RS)-6-Chloro-7-fluoro-10-(3-hydroxy-phenyl)-3a-methyl-2-(3-methylamino-propyl)-3a,4,9,10-tetrahydro-2,9,10a-triaza-cyclopenta[b]fluorene-1,3-dione], the EC50 is 39.8 to 251 nM.

Consider `COc1cc2c3c([nH]c2cc1F)[C@@H](c1cccc(O)c1)N1C(=O)N(CCCN2CCOCC2)C(=O)[C@]1(C)C3` (racemic) [Example 321, (3aSR,10RS)-7-Fluoro-10-(3-hydroxy-phenyl)-6-methoxy-3a-methyl-2-(3-morpholin-4-yl-propyl)-3a,4,9,10-tetrahydro-2,9,10a-triaza-cyclopenta[b]fluorene-1,3-dione], for which the EC50 was 39.8 to 251 nM.

Consider `CCNCCN1C(=O)N2[C@H](c3cccc(O)c3)c3[nH]c4ccc(OCC)cc4c3C[C@@]2(C)C1=O` (racemic) [Example 296, (3aSR,10RS)-6-Ethoxy-2-(2-ethylamino-ethyl)-10-(3-hydroxy-phenyl)-3a-methyl-3a,4,9,10-tetrahydro-2,9,10a-triaza-cyclopenta[b]fluorene-1,3-dione], for which the EC50 is no more than 39.8 nM.

Regarding `C=CCN(C)CCCN1C(=O)N2[C@H](c3cccc(O)c3)c3[nH]c4ccc(OC(F)F)cc4c3C[C@@]2(C)C1=O` (racemic) [Example 184, (3aSR,10RS)-2-[3-(Allyl-methyl-amino)-propyl]-6-(1,1-difluoro-methoxy)-10-(3-hydroxy-phenyl)-3a-methyl-3a,4,9,10-tetrahydro-2,9,10a-triaza-cyclopenta[b]fluorene-1,3-dione], the EC50 was 39.8 to 251 nM.

As to `CN(C)CCCN1C(=O)N2[C@H](c3cccc(O)c3)c3[nH]c4cc(F)c(Cl)cc4c3C[C@@]2(C)C1=O` (racemic) [Example 335, (3aSR,10RS)-6-Chloro-2-(3-dimethylamino-propyl)-7-fluoro-10-(3-hydroxy-phenyl)-3a-methyl-3a,4,9,10-tetrahydro-2,9,10a-triaza-cyclopenta[b]fluorene-1,3-dione], the EC50 is 39.8 to 251 nM.

Consider `CCOc1ccc2[nH]c3c(c2c1)C[C@@]1(C)C(=O)N(CCCNCC2CC2)C(=O)N1[C@@H]3c1cccc(O)c1` (racemic) [Example 188, (3aSR,10RS)-2-[3-(Cyclopropylmethyl-amino)-propyl]-6-ethoxy-10-(3-hydroxy-phenyl)-3a-methyl-3a,4,9,10-tetrahydro-2,9,10a-triaza-cyclopenta[b]fluorene-1,3-dione], for which the EC50 is 39.8 to 251 nM.

Consider `CCOc1ccc2[nH]c3c(c2c1)C[C@@]1(C)C(=O)N(CCNC2CC2)C(=O)N1[C@@H]3c1cccc(O)c1` (racemic) [Example 161, (3aSR,10RS)-2-(2-Cyclopropylamino-ethyl)-6-ethoxy-10-(3-hydroxy-phenyl)-3a-methyl-3a,4,9,10-tetrahydro-2,9,10a-triaza-cyclopenta[b]fluorene-1,3-dione], for which the EC50 was 39.8 to 251 nM.

With `C[C@@]12Cc3c([nH]c4ccc(OC(F)F)cc34)[C@@H](c3cccc(O)c3)N1C(=O)N(CCN1CCCCCC1)C2=O` (racemic) [Example 282, (3aSR,10RS)-2-(2-Azepan-1-yl-ethyl)-6-(1,1-difluoro-methoxy)-10-(3-hydroxy-phenyl)-3a-methyl-3a,4,9,10-tetrahydro-2,9,10a-triaza-cyclopenta[b]fluorene-1,3-dione], the EC50 is 39.8 to 251 nM.

As for `CCN(CCCN1C(=O)N2[C@H](c3cccc(O)c3)c3[nH]c4cc(F)c(OC)cc4c3C[C@@]2(C)C1=O)CCOC` (racemic) [Example 316, (3aSR,10RS)-2-{3-[Ethyl-(2-methoxy-ethyl)-amino]-propyl}-7-fluoro-10-(3-hydroxy-phenyl)-6-methoxy-3a-methyl-3a,4,9,10-tetrahydro-2,9,10a-triaza-cyclopenta[b]fluorene-1,3-dione], the EC50 is 39.8 to 251 nM.

Take `C[C@@]12Cc3c([nH]c4ccc(Cl)cc34)[C@@H](c3cccc(O)c3)N1C(=O)N(CCCN1CC=CC1)C2=O` (racemic) [Example 173, (3aSR,10RS)-6-Chloro-2-[3-(2,5-dihydro-pyrrol-1-yl)-propyl]-10-(3-hydroxy-phenyl)-3a-methyl-3a,4,9,10-tetrahydro-2,9,10a-triaza-cyclopenta[b]fluorene-1,3-dione]: the EC50 was no more than 39.8 nM.

As to `CN1CCN(CCCN2C(=O)N3[C@H](c4cccc(O)c4)c4[nH]c5ccc(Cl)cc5c4C[C@@]3(C)C2=O)CC1` (racemic) [Example 175, (3aSR,10RS)-6-Chloro-10-(3-hydroxy-phenyl)-3a-methyl-2-[3-(4-methyl-piperazin-1-yl)-propyl]-3a,4,9,10-tetrahydro-2,9,10a-triaza-cyclopenta[b]fluorene-1,3-dione], the EC50 is no more than 39.8 nM.

As for `CCOc1ccc2[nH]c3c(c2c1)C[C@@]1(C)C(=O)N(CCN(C)C(C)C)C(=O)N1[C@@H]3c1cccc(O)c1` (racemic) [Example 163, (3aSR,10RS)-6-Ethoxy-10-(3-hydroxy-phenyl)-2-[2-(isopropyl-methyl-amino)-ethyl]-3a-methyl-3a,4,9,10-tetrahydro-2,9,10a-triaza-cyclopenta[b]fluorene-1,3-dione], the EC50 is no more than 39.8 nM.

With `C[C@@]12Cc3c([nH]c4ccc(Cl)cc34)[C@@H](c3cccc(O)c3)N1C(=O)N(CCCN1CCCCCC1)C2=O` (racemic) [Example 180, (3aSR,10RS)-2-(3-Azepan-1-yl-propyl)-6-chloro-10-(3-hydroxy-phenyl)-3a-methyl-3a,4,9,10-tetrahydro-2,9,10a-triaza-cyclopenta[b]fluorene-1,3-dione], the EC50 was no more than 39.8 nM.

Take `COCCNCCN1C(=O)N2[C@H](c3cccc(O)c3)c3[nH]c4ccc(Br)cc4c3C[C@@]2(C)C1=O` (racemic) [Example 377, (3aSR,10RS)-6-Bromo-10-(3-hydroxy-phenyl)-2-[2-(2-methoxy-ethylamino)-ethyl]-3a-methyl-3a,4,9,10-tetrahydro-2,9,10a-triaza-cyclopenta[b]fluorene-1,3-dione]: the concentration giving a half-maximal response (EC50) was no more than 39.8 nM.

Consider `COc1cc2c3c([nH]c2cc1F)[C@@H](c1cccc(O)c1)N1C(=O)N(CCCN2CCCCCC2)C(=O)[C@]1(C)C3` (racemic) [Example 329, (3aSR,10RS)-2-(3-Azepan-1-yl-propyl)-7-fluoro-10-(3-hydroxy-phenyl)-6-methoxy-3a-methyl-3a,4,9,10-tetrahydro-2,9,10a-triaza-cyclopenta[b]fluorene-1,3-dione], for which the EC50 was 39.8 to 251 nM.

On to `C[C@@]12Cc3c([nH]c4ccc(OC(F)F)cc34)[C@@H](c3cccc(O)c3)N1C(=O)N(CCN1CCCC1)C2=O` (racemic) [Example 279, (3aSR,10RS)-6-(1,1-Difluoro-methoxy)-10-(3-hydroxy-phenyl)-3a-methyl-2-(2-pyrrolidin-1-yl-ethyl)-3a,4,9,10-tetrahydro-2,9,10a-triaza-cyclopenta[b]fluorene-1,3-dione], for which the EC50 is no more than 39.8 nM.

Take `COc1cc2c3c([nH]c2cc1F)[C@@H](c1cccc(O)c1)N1C(=O)N(CCCNCC(C)C)C(=O)[C@]1(C)C3` (racemic) [Example 332, (3aSR,10RS)-7-Fluoro-10-(3-hydroxy-phenyl)-2-(3-isobutylamino-propyl)-6-methoxy-3a-methyl-3a,4,9,10-tetrahydro-2,9,10a-triaza-cyclopenta[b]fluorene-1,3-dione]: the EC50 was 39.8 to 251 nM.

Regarding `CNCCCN1C(=O)N2[C@H](c3cccc(O)c3)c3[nH]c4ccc(OC(F)F)cc4c3C[C@@]2(C)C1=O` (racemic) [Example 203, (3aSR,10RS)-6-(1,1-Difluoro-methoxy)-10-(3-hydroxy-phenyl)-3a-methyl-2-(3-methylamino-propyl)-3a,4,9,10-tetrahydro-2,9,10a-triaza-cyclopenta[b]fluorene-1,3-dione], the EC50 was 39.8 to 251 nM.

The values are drawn from patent publication US8530493B2, “Indolopyridines as Eg5 kinesin modulators” (4SC AG, priority 2006, dated 2013).
